Test results: article PMC12377734 (Proceedings of the National Academy of Sciences of the …, 2025)

Columns and labels:
Assay type in all cases: cell-based
[1] = target: T1, hPIEZO1 (Homo sapiens, UniProt Q92508); test: single-cell Fura-2 Ca2+ imaging; details: activator; HEK-P1-KO cells, 1 mM Jedi1, pH 7.2, 1.3 mM Ca2+
[2] = target: hPIEZO1 (Homo sapiens, UniProt Q92508, L322P); test: FLIPR GCaMP6s Ca2+ assay
[3] = target: T1, hPIEZO1; test: FLIPR GCaMP6s Ca2+ assay
[4] = target: mPIEZO1 (Mus musculus, UniProt E2JF22, L329P); test: FLIPR GCaMP6s Ca2+ assay
[5] = target: mPIEZO1 (Mus musculus, UniProt E2JF22); test: FLIPR GCaMP6s Ca2+ assay
Chain of mPIEZO1 (Mus musculus, UniProt E2JF22) (E2JF22 whole entry): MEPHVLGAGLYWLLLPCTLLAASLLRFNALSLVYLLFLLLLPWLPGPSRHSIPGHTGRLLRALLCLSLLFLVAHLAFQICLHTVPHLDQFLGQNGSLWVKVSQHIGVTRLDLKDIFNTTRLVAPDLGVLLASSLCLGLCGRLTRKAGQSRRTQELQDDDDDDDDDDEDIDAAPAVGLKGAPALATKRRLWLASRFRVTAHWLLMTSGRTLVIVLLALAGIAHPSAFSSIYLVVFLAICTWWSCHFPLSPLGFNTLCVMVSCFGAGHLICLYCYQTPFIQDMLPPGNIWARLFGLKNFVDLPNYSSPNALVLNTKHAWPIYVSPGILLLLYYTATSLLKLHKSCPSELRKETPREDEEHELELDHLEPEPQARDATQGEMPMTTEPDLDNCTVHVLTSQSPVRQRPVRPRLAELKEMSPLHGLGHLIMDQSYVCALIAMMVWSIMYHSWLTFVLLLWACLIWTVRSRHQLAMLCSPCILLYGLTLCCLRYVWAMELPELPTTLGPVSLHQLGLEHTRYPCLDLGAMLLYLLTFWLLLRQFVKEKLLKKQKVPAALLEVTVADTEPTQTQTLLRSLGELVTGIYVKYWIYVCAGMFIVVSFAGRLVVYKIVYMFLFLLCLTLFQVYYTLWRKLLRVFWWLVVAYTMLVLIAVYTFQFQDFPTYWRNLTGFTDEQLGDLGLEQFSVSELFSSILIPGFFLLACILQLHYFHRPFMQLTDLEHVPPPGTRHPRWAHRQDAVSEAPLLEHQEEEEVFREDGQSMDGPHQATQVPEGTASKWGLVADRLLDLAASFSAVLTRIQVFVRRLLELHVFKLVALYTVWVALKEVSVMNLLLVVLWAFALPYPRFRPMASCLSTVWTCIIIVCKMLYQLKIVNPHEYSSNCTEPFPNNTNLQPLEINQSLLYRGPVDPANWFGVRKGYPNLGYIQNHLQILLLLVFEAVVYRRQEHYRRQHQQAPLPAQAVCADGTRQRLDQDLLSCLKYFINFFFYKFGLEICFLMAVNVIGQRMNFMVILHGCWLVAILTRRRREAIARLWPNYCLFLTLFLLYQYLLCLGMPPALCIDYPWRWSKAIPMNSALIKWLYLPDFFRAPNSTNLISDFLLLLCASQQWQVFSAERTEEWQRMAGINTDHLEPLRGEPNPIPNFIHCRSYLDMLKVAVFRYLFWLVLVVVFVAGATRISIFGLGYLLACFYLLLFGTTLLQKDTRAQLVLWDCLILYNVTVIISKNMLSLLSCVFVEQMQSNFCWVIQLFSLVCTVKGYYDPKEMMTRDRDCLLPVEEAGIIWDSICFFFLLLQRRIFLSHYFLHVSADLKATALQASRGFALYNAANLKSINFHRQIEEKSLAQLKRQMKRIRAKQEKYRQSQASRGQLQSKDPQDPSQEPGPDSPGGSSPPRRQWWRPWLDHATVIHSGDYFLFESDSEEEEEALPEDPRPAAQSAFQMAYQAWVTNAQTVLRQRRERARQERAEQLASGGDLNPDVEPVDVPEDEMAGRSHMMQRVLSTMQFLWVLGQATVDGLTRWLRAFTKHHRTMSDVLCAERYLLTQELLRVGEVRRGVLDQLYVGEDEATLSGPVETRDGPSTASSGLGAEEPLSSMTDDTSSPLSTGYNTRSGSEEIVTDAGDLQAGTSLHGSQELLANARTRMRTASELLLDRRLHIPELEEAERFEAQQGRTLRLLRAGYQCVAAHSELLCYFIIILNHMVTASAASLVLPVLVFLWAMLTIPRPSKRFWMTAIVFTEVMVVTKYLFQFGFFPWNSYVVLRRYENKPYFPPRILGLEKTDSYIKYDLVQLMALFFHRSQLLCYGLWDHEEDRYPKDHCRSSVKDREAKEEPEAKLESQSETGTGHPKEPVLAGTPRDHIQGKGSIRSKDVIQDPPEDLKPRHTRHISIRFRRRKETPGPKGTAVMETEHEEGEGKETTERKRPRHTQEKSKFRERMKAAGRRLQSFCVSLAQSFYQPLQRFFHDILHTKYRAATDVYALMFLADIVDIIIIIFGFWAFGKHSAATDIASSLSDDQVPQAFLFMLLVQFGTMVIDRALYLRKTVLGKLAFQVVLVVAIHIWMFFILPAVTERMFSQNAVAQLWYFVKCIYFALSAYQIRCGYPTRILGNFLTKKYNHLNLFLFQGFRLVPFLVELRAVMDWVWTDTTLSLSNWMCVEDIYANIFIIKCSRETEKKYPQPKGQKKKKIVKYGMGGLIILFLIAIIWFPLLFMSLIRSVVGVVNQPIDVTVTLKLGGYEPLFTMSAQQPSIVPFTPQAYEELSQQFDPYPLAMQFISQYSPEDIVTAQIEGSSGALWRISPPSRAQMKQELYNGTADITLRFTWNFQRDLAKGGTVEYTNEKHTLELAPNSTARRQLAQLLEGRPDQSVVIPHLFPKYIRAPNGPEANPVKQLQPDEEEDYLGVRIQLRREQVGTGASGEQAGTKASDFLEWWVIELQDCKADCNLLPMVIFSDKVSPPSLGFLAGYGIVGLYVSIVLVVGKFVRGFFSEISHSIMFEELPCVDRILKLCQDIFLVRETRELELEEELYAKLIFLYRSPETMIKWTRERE

T1 sequence (Q92508 whole entry): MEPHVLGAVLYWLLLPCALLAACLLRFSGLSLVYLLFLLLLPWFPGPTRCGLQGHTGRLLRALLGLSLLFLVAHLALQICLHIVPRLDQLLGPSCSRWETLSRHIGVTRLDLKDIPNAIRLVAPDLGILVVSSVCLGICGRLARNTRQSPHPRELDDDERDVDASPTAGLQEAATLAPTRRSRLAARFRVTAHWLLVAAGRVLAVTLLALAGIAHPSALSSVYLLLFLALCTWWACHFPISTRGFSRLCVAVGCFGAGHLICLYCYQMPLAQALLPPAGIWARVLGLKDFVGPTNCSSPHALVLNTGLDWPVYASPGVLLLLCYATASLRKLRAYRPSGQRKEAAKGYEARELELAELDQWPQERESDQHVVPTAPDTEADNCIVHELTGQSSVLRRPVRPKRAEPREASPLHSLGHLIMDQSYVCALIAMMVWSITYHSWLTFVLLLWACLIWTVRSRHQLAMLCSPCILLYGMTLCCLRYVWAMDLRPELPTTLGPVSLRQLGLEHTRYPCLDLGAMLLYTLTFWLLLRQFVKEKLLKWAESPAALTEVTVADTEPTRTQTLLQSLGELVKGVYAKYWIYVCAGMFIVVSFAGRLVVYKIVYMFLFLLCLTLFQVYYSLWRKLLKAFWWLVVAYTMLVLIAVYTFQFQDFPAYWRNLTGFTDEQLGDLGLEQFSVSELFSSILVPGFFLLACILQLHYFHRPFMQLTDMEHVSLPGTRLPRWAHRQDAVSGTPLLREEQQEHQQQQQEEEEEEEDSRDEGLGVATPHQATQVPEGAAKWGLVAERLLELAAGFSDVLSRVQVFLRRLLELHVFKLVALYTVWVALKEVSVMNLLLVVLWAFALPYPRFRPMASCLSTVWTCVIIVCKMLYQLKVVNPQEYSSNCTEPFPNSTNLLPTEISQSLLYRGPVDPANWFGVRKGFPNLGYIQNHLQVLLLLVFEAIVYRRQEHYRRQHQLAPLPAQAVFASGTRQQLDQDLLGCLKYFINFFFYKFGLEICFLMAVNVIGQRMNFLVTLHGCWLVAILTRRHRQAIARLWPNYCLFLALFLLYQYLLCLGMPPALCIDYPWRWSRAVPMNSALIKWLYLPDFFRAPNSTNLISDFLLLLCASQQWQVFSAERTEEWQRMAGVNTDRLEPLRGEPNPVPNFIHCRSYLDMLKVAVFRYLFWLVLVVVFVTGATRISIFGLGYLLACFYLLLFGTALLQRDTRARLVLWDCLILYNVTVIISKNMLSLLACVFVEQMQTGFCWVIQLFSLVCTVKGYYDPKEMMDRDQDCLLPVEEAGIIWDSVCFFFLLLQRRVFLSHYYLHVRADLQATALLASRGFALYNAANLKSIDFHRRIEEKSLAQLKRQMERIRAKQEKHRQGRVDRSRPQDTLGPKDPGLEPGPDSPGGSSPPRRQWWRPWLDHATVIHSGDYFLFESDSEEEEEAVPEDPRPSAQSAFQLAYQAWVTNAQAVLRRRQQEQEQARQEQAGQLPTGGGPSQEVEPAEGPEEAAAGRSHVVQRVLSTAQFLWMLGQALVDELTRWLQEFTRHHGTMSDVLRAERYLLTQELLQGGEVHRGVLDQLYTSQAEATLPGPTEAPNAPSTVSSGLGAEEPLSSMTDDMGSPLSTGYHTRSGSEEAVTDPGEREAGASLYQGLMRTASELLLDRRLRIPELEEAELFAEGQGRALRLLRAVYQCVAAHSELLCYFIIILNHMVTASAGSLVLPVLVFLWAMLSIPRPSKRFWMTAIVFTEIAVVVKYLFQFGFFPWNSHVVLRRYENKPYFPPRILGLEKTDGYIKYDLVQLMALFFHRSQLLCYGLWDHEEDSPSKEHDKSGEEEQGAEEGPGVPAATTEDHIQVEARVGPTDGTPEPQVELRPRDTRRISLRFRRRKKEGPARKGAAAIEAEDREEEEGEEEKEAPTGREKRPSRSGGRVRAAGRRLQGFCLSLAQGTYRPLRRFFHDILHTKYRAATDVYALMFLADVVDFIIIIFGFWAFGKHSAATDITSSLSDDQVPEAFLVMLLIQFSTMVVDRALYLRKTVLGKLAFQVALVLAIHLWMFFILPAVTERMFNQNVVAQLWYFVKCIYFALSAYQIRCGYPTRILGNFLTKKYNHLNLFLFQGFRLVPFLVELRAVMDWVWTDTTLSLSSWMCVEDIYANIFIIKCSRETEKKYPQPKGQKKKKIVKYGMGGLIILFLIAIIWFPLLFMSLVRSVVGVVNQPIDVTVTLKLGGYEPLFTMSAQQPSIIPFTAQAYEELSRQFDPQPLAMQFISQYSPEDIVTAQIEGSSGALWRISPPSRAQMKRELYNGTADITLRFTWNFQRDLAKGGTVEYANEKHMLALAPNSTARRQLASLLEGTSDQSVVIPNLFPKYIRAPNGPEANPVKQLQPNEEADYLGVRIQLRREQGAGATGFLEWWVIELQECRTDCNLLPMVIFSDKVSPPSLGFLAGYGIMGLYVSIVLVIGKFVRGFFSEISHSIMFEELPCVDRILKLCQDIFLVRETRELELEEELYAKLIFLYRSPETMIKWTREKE
Chain of hPIEZO1 (Homo sapiens, UniProt Q92508, L322P) (Q92508 whole entry L322P): as the sequence (Q92508 whole entry) above, with L322P counted along it
Chain of mPIEZO1 (Mus musculus, UniProt E2JF22, L329P) (E2JF22 whole entry L329P): as the sequence (E2JF22 whole entry) above, with L329P counted along it

EC50 [2]	EC50 [3]	EC50 [4]	EC50 [5]	SMILES	Fura-2 ratio change at 1 mM [1]
–	–	–	–	Cc1oc(-c2ccccc2)cc1C(=O)O [Jedi1]	comparable Fura-2 signal increase in response to the application of either Jedi1 or Yoda1
3.1 µM	9.1 µM	1.3 µM	4.3 µM	Clc1cccc(Cl)c1CSc1nnc(-c2cnccn2)s1 [Yoda1]	–
